The values that follow come from patent US7473688B2, “Indolobenzazepine HCV NS5B inhibitors” (Bristol-Myers Squibb Company, priority 2005, dated 2009).

What is called EC50 is the concentration giving half of the maximal effect. What is called IC50 is the concentration at which inhibition is half-maximal.

The test system of one assay is HCV replicon. Put plainly: HCV replicon FRET assay. Particulars: Hepatitis C virus, FRET assay, read-out: EC50*. Format: cell-based. The method in brief: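 HCV replicon cells, with or without Renilla luciferase reporter, incubated with titrated compounds at 37 °C; Alamar blue read for cytotoxicity. NS3 protease activity read from lysates with 20 μM EDANS/DABCYL FRET peptide (340/490 nm, kinetic), or by Dual-Glo luciferase. Background from highest protease-inhibitor wells; EC50 = 50% signal reduction.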
For orientation: Replicon systems follow genome replication, usually without infectious particles.

In the next assay the target is T1, HCV NS5B (Hepatitis C virus genotype 1b, UniProt Q9WMX2).
T1 construct: The protein was expressed with an 18 amino acid C-terminal truncation to enhance the solubility; made in house; host or cells: E. coli BL21 (DE3), pET21a
T1 sequence (Q9WMX2 2420-2992): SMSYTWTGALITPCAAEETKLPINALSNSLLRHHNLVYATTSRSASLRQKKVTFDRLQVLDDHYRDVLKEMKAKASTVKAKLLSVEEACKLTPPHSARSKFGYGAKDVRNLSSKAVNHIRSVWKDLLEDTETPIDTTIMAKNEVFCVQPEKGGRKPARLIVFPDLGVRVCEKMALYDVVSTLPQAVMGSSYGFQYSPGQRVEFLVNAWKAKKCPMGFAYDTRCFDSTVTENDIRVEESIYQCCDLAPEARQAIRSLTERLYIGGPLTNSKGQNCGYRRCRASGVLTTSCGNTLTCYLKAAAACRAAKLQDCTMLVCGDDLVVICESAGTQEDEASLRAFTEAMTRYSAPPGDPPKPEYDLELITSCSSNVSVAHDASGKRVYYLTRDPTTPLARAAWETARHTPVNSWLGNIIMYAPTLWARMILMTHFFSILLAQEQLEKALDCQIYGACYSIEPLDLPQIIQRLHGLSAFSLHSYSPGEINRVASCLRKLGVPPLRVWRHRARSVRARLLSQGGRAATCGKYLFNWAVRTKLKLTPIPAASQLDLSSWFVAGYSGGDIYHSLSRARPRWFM
Put plainly: HCV NS5B RdRp enzyme assay (preincubation protocol). Format: biochemical. In a few lines:
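C-terminally truncated (Δ18) genotype 1b NS5B from E. coli, 14 nM, added to compound, then polyA template (0.2 nM), 3H-UTP (0.29 μM) and oligo-dT12 primer precaptured on streptavidin SPA beads. 4 h at 30 °C, pH 7.5, 2% DMSO; SPA readout; IC50 from seven concentrations by logistic fit.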

Like-named read-outs stand apart in the source and are kept apart here.

For `COc1ccc2c(c1)C=C(C(=O)N1CCN(CC(F)(F)F)CC1)Cn1c-2c(C2CCCCC2)c2ccc(C(=O)NS(=O)(=O)N(C)C)cc21` [drawing 390], in the assay with HCV replicon (Table 1a), the EC50 is 0.03 to 1 µM. The IC50 at HCV NS5B (Table 1a, read-out: IC50*) was 0.01 to 1 µM.

Take `COc1ccc2c(c1)C=C(C(=O)N1CC(N(C)C)C1)Cn1c-2c(C2CCCCC2)c2ccc(C(=O)NS(=O)(=O)N(C)C)cc21`: the EC50 in the assay with HCV replicon (Table 1b) lay within 0.03 to 1 µM. Further, the IC50 at HCV NS5B (Table 1b, read-out: IC50*) is 0.02 to 1 µM.

On to `COC(=O)c1ccc2c(C3CCCCC3)c3n(c2c1)CC(C(=O)N1CCC(N2CCOCC2)CC1)=Cc1ccccc1-3`, for which, in the assay with HCV replicon (Table 1), the EC50 lay in the range of 1 to 10 µM. For the same compound, the IC50 on HCV NS5B (Table 1, read-out: IC50*) is more than 1 µM.

With `O=C(O)c1ccc2c(C3CCCCC3)c3n(c2c1)CC(C(=O)N1CCC(n2ccnn2)CC1)=Cc1ccccc1-3`, the EC50 in the assay on HCV replicon (Table 1) was in the range of 0.07 to 1 µM. Moreover, the 50% inhibitory concentration (IC50) on HCV NS5B (Table 1, read-out: IC50*) is 0.01 to 1 µM.

Consider `CN(C)S(=O)(=O)NC(=O)c1ccc2c(C3CCCCC3)c3n(c2c1)CC(C(=O)NC1CCOCC1)=Cc1ccccc1-3`, for which the EC50 in the assay with HCV replicon (Table 1) lay in the range of 0.07 to 1 µM. Moreover, the IC50 on HCV NS5B (Table 1, read-out: IC50*) was 0.01 to 1 µM.

In the case of `O=C(NS(=O)(=O)C(F)(F)F)c1ccc2c(C3CCCCC3)c3n(c2c1)CC(C(=O)N1CCOCC1)Cc1ccccc1-3` (stereo not shown), the EC50 in the assay on HCV replicon (Table 1) is 0.07 to 1 µM. On HCV NS5B (Table 1, read-out: IC50*), the IC50 lay within 0.01 to 1 µM.

For the compound `COc1ccc2c(c1)C=C(C(=O)N(C)[C@H](C)C(=O)O)Cn1c-2c(C2CCCCC2)c2ccc(C(=O)NS(=O)(=O)N(C)C)cc21`, the half-maximal effective concentration (EC50) in the assay with HCV replicon (Table 1b) lay within 0.03 to 1 µM. Moreover, the IC50 at HCV NS5B (Table 1b, read-out: IC50*) was in the range of 0.02 to 1 µM.

As to `COc1ccc2c(c1)C=C(C(=O)N(C)Cc1ccco1)Cn1c-2c(C2CCCCC2)c2ccc(C(=O)NS(=O)(=O)N(C)C)cc21`, the EC50 with HCV replicon (Table 1b) was 0.03 to 1 µM. The IC50 on HCV NS5B (Table 1b, read-out: IC50*) is less than 0.02 µM.

Turning to `COC(=O)c1ccc2c(C3CCCCC3)c3n(c2c1)CC(C(=O)N1CCCC(=O)N1)=Cc1ccccc1-3`, the EC50 in the assay with HCV replicon (Table 1) was 1 to 10 µM. For the same compound, the IC50 on HCV NS5B (Table 1, read-out: IC50*) was more than 1 µM.

As to `CC(=O)NN(C)C(=O)C1Cc2ccccc2-c2c(C3CCCCC3)c3ccc(C(=O)NS(=O)(=O)N(C)C)cc3n2C1` (stereo not shown), in the assay on HCV replicon (Table 1a), the EC50 was in the range of 0.03 to 1 µM. Also, the IC50 on HCV NS5B (Table 1a, read-out: IC50*) was in the range of 0.01 to 1 µM.

On to `COc1ccc2c(c1)CC(NC(=O)N1CCOC(CNC(C)=O)C1)Cn1c-2c(C2CCCCC2)c2ccc(C(=O)NS(=O)(=O)N(C)C)cc21` (stereo not shown), for which the EC50 in the assay with HCV replicon (Table 1a) was 0.03 to 1 µM. At HCV NS5B (Table 1a, read-out: IC50*), the 50% inhibitory concentration (IC50) is less than 0.02 µM.

For the compound `CN(C)S(=O)(=O)NC(=O)c1ccc2c(C3CCCCC3)c3n(c2c1)CC(NC(=O)N1CCOCC1)Cc1ccccc1-3` (stereo not shown) [drawing 141], the EC50 with HCV replicon (Table 1) was in the range of 0.07 to 1 µM. The IC50 at HCV NS5B (Table 1, read-out: IC50*) was in the range of 0.01 to 1 µM.

With `COc1ccc2c(c1)CC(NC(=O)N(C)CC1CCCCO1)Cn1c-2c(C2CCCCC2)c2ccc(C(=O)NS(=O)(=O)N(C)C)cc21` (stereo not shown), in the assay with HCV replicon (Table 1b), the EC50 lay within 0.03 to 1 µM. The IC50 at HCV NS5B (Table 1b, read-out: IC50*) fell in the range of 0.02 to 1 µM.

`CN(C)S(=O)(=O)NC(=O)c1ccc2c(C3CCCCC3)c3n(c2c1)CC(C(=O)N1CCC(C(=O)N2CCCC2)CC1)=Cc1ccccc1-3`: the EC50 in the assay on HCV replicon (Table 1) lay within 0.07 to 1 µM. In addition, the IC50 at HCV NS5B (Table 1, read-out: IC50*) is 0.01 to 1 µM.

With `COc1ccc2c(c1)CC(NC(=O)N(C)CC(=O)N1CCN(C)CC1)Cn1c-2c(C2CCCCC2)c2ccc(C(=O)NS(=O)(=O)N(C)C)cc21` (stereo not shown), in the assay on HCV replicon (Table 1b), the EC50 was in the range of 0.03 to 1 µM. Also, the IC50 on HCV NS5B (Table 1b, read-out: IC50*) lay within 0.02 to 1 µM.

Turning to `O=C(O)c1ccc2c(C3CCCCC3)c3n(c2c1)CC(C(=O)N1CCC(N2CCOCC2)CC1)=Cc1ccccc1-3`, in the assay on HCV replicon (Table 1), the EC50 lay within 0.07 to 1 µM. For the same compound, the concentration for half-maximal inhibition (IC50) at HCV NS5B (Table 1, read-out: IC50*) is 0.01 to 1 µM.

With `O=C(NC1Cc2ccccc2-c2c(C3CCCCC3)c3ccc(C(=O)O)cc3n2C1)OCc1ccccc1` (stereo not shown), the EC50 in the assay on HCV replicon (Table 1) lay in the range of 0.07 to 1 µM. Also, the IC50 at HCV NS5B (Table 1, read-out: IC50*) was 0.01 to 1 µM.

As for `COc1ccc2c(c1)C=C(C(=O)N1CC(OP(=O)(OC(C)(C)C)OC(C)(C)C)C1)Cn1c-2c(C2CCCCC2)c2ccc(C(=O)NS(=O)(=O)N(C)C)cc21`, the 50% effective concentration (EC50) with HCV replicon (Table 1b) lay within 0.03 to 1 µM. For the same compound, on HCV NS5B (Table 1b, read-out: IC50*), the IC50 lay within 0.02 to 1 µM.

As to `COc1ccc2c(c1)CC(C(=O)N1CC(N(C)C)C1)Cn1c-2c(C2CCCCC2)c2ccc(C(=O)NS(=O)(=O)N(C)C)cc21` (stereo not shown), in the assay on HCV replicon (Table 1b), the EC50 was in the range of 0.03 to 1 µM. Moreover, the IC50 on HCV NS5B (Table 1b, read-out: IC50*) is 0.02 to 1 µM.

For `CN1CCCC(CN(C)C(=O)C2=Cc3ccccc3-c3c(C4CCCCC4)c4ccc(C(=O)NS(=O)(=O)N(C)C)cc4n3C2)C1` (stereo not shown), the EC50 in the assay on HCV replicon (Table 1) lay in the range of 0.07 to 1 µM. The IC50 on HCV NS5B (Table 1, read-out: IC50*) was 0.01 to 1 µM.

For the compound `NC(=O)C1CCCN(C(=O)C2Cc3ccccc3-c3c(C4CCCCC4)c4ccc(C(=O)O)cc4n3C2)C1` (stereo not shown), the EC50 in the assay on HCV replicon (Table 1) is 1 to 10 µM. In addition, the IC50 at HCV NS5B (Table 1, read-out: IC50*) is 0.01 to 1 µM.

Turning to `CN(C)S(=O)(=O)NC(=O)c1ccc2c(C3CCCCC3)c3n(c2c1)CC(C(=O)N1CCC(N2CCC(F)(F)CC2)CC1)=Cc1ccccc1-3`, in the assay with HCV replicon (Table 1), the EC50 is 0.07 to 1 µM. The IC50 at HCV NS5B (Table 1, read-out: IC50*) lay within 0.01 to 1 µM.

Take `COc1ccc2c(c1)C=C(C(=O)N(C)[C@H](C(=O)N(C)C)C(C)C)Cn1c-2c(C2CCCCC2)c2ccc(C(=O)NS(=O)(=O)N(C)C)cc21`: the EC50 in the assay on HCV replicon (Table 1b) lay in the range of 0.03 to 1 µM. Also, the half-inhibitory concentration (IC50) at HCV NS5B (Table 1b, read-out: IC50*) is less than 0.02 µM.
